According to patent US20150105252A1, “SUBSTITUTED PYRAZOLES AS HERBICIDES” (E I DU PONT DE NEMOURS AND COMPANY, priority 2013, published 2015):

What was measured:
windgrass = assay: Test C postemergence; format: in vivo, Apera spica-venti; settings: 62 g ai/ha, scale 0 to 100
oat, wild = assay: Test C preemergence; format: in vivo, Avena fatua
From the text: (§1) Seeds of plant species selected from blackgrass (Alopecurus myosuroides), ryegrass, Italian (Italian ryegrass, Lolium multiflorum), wheat (winter wheat, Triticum aestivum), galium (catchweed bedstraw, Galium aparine), corn (Zea mays), crabgrass, large (large crabgrass, Digitaria sanguinalis), foxtail, giant (giant foxtail, Setaria faberii), johnsongrass (Sorghum halepense), lambsquarters (Chenopodium album), morningglory (Ipomoea coccinea), nutsedge, yellow (yellow nutsedge, Cyperus esculentus), pigweed (redroot pigweed, Amaranthus retroflexus), ragweed (common ragweed, Ambrosia elation), soybean (Glycine max), barnyardgrass (Echinochloa crus-galli), oilseed rape (Brassica napus), waterhemp (common waterhemp, Amaranthus rudis), oat, wild (wild oat, Avena fatua), kochia (Kochia scoparia), Surinam grass (Brachiaria decumbens), foxtail, green (green foxtail, Setaria viridis), goosegrass (Eleusine indica), bromegrass, downy (downy bromegrass, Bromus tectorum), nightshade (eastern black nightshade, Solanum ptycanthum), cocklebur (common cocklebur, Xanthium strumarium), cupgrass, woolly (woolly cupgrass, Eriochloa villosa), bermudagrass (Cynodon dactylon), sunflower, (common oilseed sunflower, Helianthus annuus), Russian thistle (Salsola kali), and velvetleaf (Abutilon theophrasti) were planted into a blend of loam soil and sand and treated preemergence with test chemicals formulated in a non-phytotoxic solvent mixture which included a surfactant.
(§2) At the same time, plants selected from these crop and weed species and also chickweed (common chickweed, Stellaria media), canarygrass (littleseed canarygrass, Phalaris minor), and deadnettle (henbit deadnettle, Lamium amplexicaule), were planted in pots containing Redi-Earth® planting medium (Scotts Company, 14111 Scottslawn Road, Marysville, Ohio 43041) comprising spaghnum peat moss, vermiculite, wetting agent and starter nutrients and treated with postemergence applications of test chemicals formulated in the same manner. Plants ranged in height from 2 to 18 cm (1- to 4-leaf stage) for postemergence treatments. Treated plants and controls were maintained in a greenhouse for 13 to 15 days, after which time all species were compared to controls and visually evaluated. Plant response ratings, summarized in Table C, are based on a scale of 0 to 100 where 0 is no effect and 100 is complete control. A dash (-) response means no test result.

goosegrass = assay: Test C postemergence; format: in vivo, Eleusine indica; settings: for Goosegrass plant response rating: scale 0 to 100
From the text: as §1, §2

barley = assay: Test C postemergence; format: in vivo, Hordeum vulgare
pigweed, palmer = assay: Test F preemergence; format: in vivo, Amaranthus palmeri
From the text: (§3) Seeds of plant species selected from corn (Zea mays), soybean (Glycine max), velvetleaf (Abutilon theophrasti), lambsquarters (Chenopodium album), wild poinsettia (Euphorbia heterophylla), pigweed, palmer (palmer pigweed, Amaranthus palmeri), common waterhemp (Amaranthus rudis), surinam grass (Brachiaria decumbens), large crabgrass (Digitaria sanguinalis), crabgrass, Brazil (Brazilian crabgrass, Digitaria horizontalis), fall panicum (Panicum dichotomiflorum), giant foxtail (Setaria faberii), green foxtail (Setaria viridis), goosegrass (Eleusine indica), johnsongrass (Sorghum halepense), common ragweed (Ambrosia elation), barnyardgrass (Echinochloa crus-galli), southern sandbur (Cenchrus echinatus), arrowleaf sida (Sida rhombifolia), Italian ryegrass (Lolium multiflorum), dayflower, VA (Virginia (VA) dayflower, Commelina virginica), field bindweed (Convolvulus arvensis), cocklebur (common cocklebur, Xanthium strumarium), morningglory (Ipomoea coccinea), nightshade (eastern black nightshade, Solanum ptycanthum), kochia (Kochia scoparia), yellow nutsedge (Cyperus esculentus), and hairy beggarticks (Bidens pilosa), were planted into a silt loam soil and treated preemergence with test chemicals formulated in a non-phytotoxic solvent mixture which included a surfactant.
(§4) At the same time, plants from these crop and weed species and also horseweed (Canada horseweed, Conyza canadensis), smartweed (ladysthumb smartweed, Polygonum persicaria), waterhemp_RES1, (ALS & Triazine resistant common waterhemp, Amaranthus rudis), and waterhemp_RES2, (ALS & HPPD resistant common waterhemp, Amaranthus rudis) were treated with postemergence applications of test chemicals formulated in the same manner. Plants ranged in height from 2 to 18 cm for postemergence treatments (1- to 4-leaf stage). Treated plants and controls were maintained in a greenhouse for 14 to 21 days, after which time all species were compared to controls and visually evaluated. Plant response ratings, summarized in Table F, are based on a scale of 0 to 100 where 0 is no effect and 100 is complete control. A dash (-) response means no test result.

crabgrass, Brazil = assay: Test F preemergence; format: in vivo, Digitaria horizontalis
From the text: as §3, §4

green foxtail = assay: Test F preemergence; format: in vivo, Setaria viridis
From the text: as §3, §4

hairy beggarticks = assay: Test F preemergence; format: in vivo, Bidens pilosa
From the text: as §3, §4

morningglory = assay: Test F preemergence; format: in vivo, Ipomoea coccinea
From the text: as §3, §4

barnyardgrass = assay: Test F preemergence; format: in vivo, Echinochloa crus-galli
From the text: as §3, §4

[1] = postemergence, 250 g ai/ha, scale 0 to 100 (0 no effect, 100 complete control)
[2] = postemergence, 125 g ai/ha, scale 0 to 100, 0 no effect, 100 complete control
[3] = 250 g ai/ha, scale 0 to 100 (0 no effect, 100 complete control)
[4] = postemergence, 62 g ai/ha, scale 0 to 100, 0 no effect, 100 complete control
[5] = 125 g ai/ha, scale 0 to 100, 0 no effect, 100 complete control
[6] = Preemergence, 31 g ai/ha, scale 0 to 100
[7] = Preemergence, 62 g ai/ha, scale 0 to 100
[8] = Preemergence, 125 g ai/ha, scale 0 to 100
[9] = preemergence, 8 g ai/ha, scale 0 to 100, 100 is complete control
[10] = preemergence, 16 g ai/ha, scale 0 to 100, 100 is complete control
[11] = Preemergence, 250 g ai/ha, scale 0 to 100
[12] = Preemergence, 16 g ai/ha, scale 0 to 100

Row | Compound | Windgrass plant response rating (windgrass) | Goosegrass plant response rating (goosegrass; Postemergence, 31 g ai/ha) | Plant response rating, Goosegrass (goosegrass; [1]) | Plant response rating, Goosegrass (goosegrass; [2]) | Plant response rating, Barley (barley; [3]) | Plant response rating, Goosegrass (goosegrass; [4]) | Plant response rating, Barley (barley; [5]) | Plant response rating, Pigweed, Palmer (pigweed, palmer; [7]) | Plant response rating, Pigweed, Palmer (pigweed, palmer; [8]) | Plant response rating, Pigweed, Palmer (pigweed, palmer; [10]) | Plant response rating, Crabgrass, Brazil (crabgrass, Brazil; [7]) | Plant response rating, Crabgrass, Brazil (crabgrass, Brazil; [8]) | Plant response rating, Green Foxtail (green foxtail; [7]) | Plant response rating, Green Foxtail (green foxtail; [8]) | Plant response rating, Hairy Beggarticks (hairy beggarticks; [7]) | Plant response rating, Hairy Beggarticks (hairy beggarticks; [8]) | Plant response rating, Morningglory (morningglory; [7]) | Plant response rating, Morningglory (morningglory; [8]) | Plant response rating, Barnyardgrass (barnyardgrass; [7]) | Plant response rating, Barnyardgrass (barnyardgrass; [8]) | other results
1 | Cc1cc(C(=O)NCC(F)(F)F)nn1Cc1ccnc(C(F)(F)F)c1 [Compound 74] | 0 | 5 | 10 | 5 | 5 |  |  |  |  |  |  |  |  |  |  |  |  |  |  |  | Plant response rating (scale of 0 to 100), Oat, Wild (oat, wild; Preemergence, 250 g ai/ha): 95; Oat, Wild plant response rating (oat, wild; preemergence, 31 g ai/ha, scale 0 to 100 (0 no effect, 100 complete control), 13 to 15 days): 0; Plant response rating, Oat, Wild (oat, wild; preemergence, 62 g ai/ha, 13 to 15 days, scale 0 to 100, 0 = no effect, 100 = complete control): 40; Oat, Wild plant response rating (oat, wild; preemergence, 125 g ai/ha, scale 0 to 100, 0 is no effect, 100 is complete control): 85; Goosegrass plant response rating (goosegrass; postemergence, 62 g ai/ha): 5
2 | CCCNC(=O)c1cc(CC)n(Cc2cccc(OC(F)(F)F)c2)n1 [Compound 27] | 20 | 0 | 10 | 0 | 30 | 0 | 20 |  |  |  |  |  |  |  |  |  |  |  |  |  | 
3 | CCc1cc(C(=O)NCC(F)(F)F)nn1Cc1cccc(OC(F)(F)F)c1 [Compound 20] | 10 | 0 | 15 | 5 | 30 | 5 | 30 |  |  |  |  |  |  |  |  |  |  |  |  |  | 
4 | CCc1cc(-c2ccc(C(F)(F)F)cc2)nn1Cc1ccnc(C(F)(F)F)c1 [Compound 110] |  |  |  |  |  |  |  | 100 | 100 | 90 | 100 | 100 | 100 | 100 | 30 | 50 | 10 | 60 | 10 | 35 | Plant response rating, Pigweed, Palmer (pigweed, palmer; [6]): 95; Plant response rating, Pigweed, Palmer (pigweed, palmer; [9]): 70; Plant response rating, Crabgrass, Brazil (crabgrass, Brazil; [6]): 100; Plant response rating, Crabgrass, Brazil (crabgrass, Brazil; [9]): 50; Plant response rating, Crabgrass, Brazil (crabgrass, Brazil; [10]): 70; Plant response rating, Green Foxtail (green foxtail; [6]): 75; Plant response rating, Green Foxtail (green foxtail; [9]): 25; Plant response rating, Green Foxtail (green foxtail; [10]): 30; Plant response rating, Hairy Beggarticks (hairy beggarticks; [6]): 35; Plant response rating, Hairy Beggarticks (hairy beggarticks; [9]): 50; Plant response rating, Hairy Beggarticks (hairy beggarticks; [10]): 35; Plant response rating, Morningglory (morningglory; [6]): 10; Plant response rating, Morningglory (morningglory; [9]): 0; Plant response rating, Morningglory (morningglory; [10]): 20; Plant response rating, Barnyardgrass (barnyardgrass; [6]): 0; Plant response rating, Barnyardgrass (barnyardgrass; [9]): 0; Plant response rating, Barnyardgrass (barnyardgrass; [10]): 0
5 | CCc1cc(C(=O)NCC(F)(F)F)nn1Cc1ccnc(Br)c1 [Compound 224] |  |  |  |  |  |  |  | 100 | 100 |  | 98 | 100 | 35 | 70 | 0 | 0 | 0 | 0 | 0 | 40 | Plant response rating, Pigweed, Palmer (pigweed, palmer; [11]): 100; Plant response rating, Crabgrass, Brazil (crabgrass, Brazil; [11]): 100; Plant response rating, Green Foxtail (green foxtail; [11]): 95; Plant response rating, Hairy Beggarticks (hairy beggarticks; [11]): 10; Plant response rating, Morningglory (morningglory; [11]): 25; Plant response rating, Barnyardgrass (barnyardgrass; [11]): 70
6 | CCCc1cc(C(=O)NC(C)C)nn1Cc1cc(C(F)(F)F)nn1C [Compound 201] |  |  |  |  |  |  |  | 40 | 65 | 0 | 95 | 100 | 40 | 75 | 20 | 35 | 25 | 65 | 10 | 85 | Plant response rating, Pigweed, Palmer (pigweed, palmer; [11]): 90; Plant response rating, Crabgrass, Brazil (crabgrass, Brazil; [12]): 75; Plant response rating, Crabgrass, Brazil (crabgrass, Brazil; [11]): 100; Plant response rating, Crabgrass, Brazil (crabgrass, Brazil; [10]): 0; Plant response rating, Green Foxtail (green foxtail; [11]): 80; Plant response rating, Green Foxtail (green foxtail; [10]): 0; Plant response rating, Hairy Beggarticks (hairy beggarticks; [11]): 40; Plant response rating, Hairy Beggarticks (hairy beggarticks; [10]): 0; Plant response rating, Morningglory (morningglory; [12]): 0; Plant response rating, Morningglory (morningglory; [11]): 80; Plant response rating, Morningglory (morningglory; [10]): 0; Plant response rating, Barnyardgrass (barnyardgrass; [12]): 0; Plant response rating, Barnyardgrass (barnyardgrass; [11]): 95; Plant response rating, Barnyardgrass (barnyardgrass; [10]): 0
